Source: patent US20090163586A1, “Bis-(Sulfonylamino) Derivatives in Therapy 205” (AstraZeneca AB, priority 2007, published 2009)

Target: T1, human mPGES-1 (Homo sapiens, UniProt O14684)
T1 sequence (O14684 1-152): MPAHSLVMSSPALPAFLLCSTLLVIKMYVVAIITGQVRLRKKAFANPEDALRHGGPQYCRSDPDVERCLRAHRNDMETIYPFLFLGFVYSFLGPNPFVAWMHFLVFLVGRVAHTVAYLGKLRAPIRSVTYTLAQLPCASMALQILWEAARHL
Test: Microsomal prostaglandin E synthase biochemical assay
Conditions: microsome preparation containing human mPGES-1; PGH2 10.8 μM, GSH 2.5 mM, pH 6.8; PGE2 by HTRF; average of at least n=2
Description: Compounds were tested as inhibitors of microsomal prostaglandin E synthase activity in microsomal prostaglandin E synthase assays and whole cell assays. These assays measure prostaglandin E2 (PGE2) synthesis which is taken as a measure of prostaglandin E synthase activity. Microsomal prostaglandin E synthase biochemical assays used microsomal prostaglandin E synthase-1 in microsomal preparations. The source of the microsomes can be for example interleukin-1β-stimulated human A549 cells (which express human mPGES-1) or Sf9 cells transfected with plasmids encoding human mPGES-1 cDNA. The whole blood assay [described by Patrignani, P. et al., Journal of Pharmacology and Experimental Therapeutics, 1994, vol. 271, pp 1705-1712] was used as the whole cell assay for testing the compounds. Whole blood provides a protein and cell rich milieu for the study of biochemical efficacy of anti-inflammatory compounds such as prostaglandin synthase inhibitors. To study the inhibitory activities of these compounds, human blood was stimulated with lipopolysaccharide (LPS) for typically 16 hours to induce mPGES-1 expression, after which the concentration of produced PGE2 was measured by competitive-immuno assay (homogeneous time-resolved fluorescence, HTRF) as read out for effectiveness against mPGES-1-dependent PGE2 production.
Microsomal Prostaglandin E Synthase Biochemical Assay
A solution of test compound was added to a diluted microsome preparation containing human mPGES-1 and pre-incubated for 15 minutes in potassium phosphate buffer pH 6.8 with cofactor glutathione (GSH). Corresponding solutions without test compound were used as positive controls, and corresponding solutions without test compound and without microsomes were used as negative controls. The enzymatic reaction was then started by addition of the substrate PGH2 in an organic solution (dry acetonitrile).
The typical reaction conditions of the enzymatic reaction were thus: Test compound: ranging from 60 μM to 0.002 μM, or zero in positive and negative controls; potassium phosphate buffer pH 6.8: 50 mM; GSH: 2.5 mM; mPGES-1-containing microsomes: 2 μg/mL (sample and positive controls) or 0 μg/mL (negative control); PGH2: 10.8 μM; Acetonitrile: 7.7% (v/v); DMSO: 0.6% (v/v). The reaction was stopped after one minute by adding an acidic solution (pH 1.9) of ferric chloride and citrate (final concentrations 7 mM and 47 mM respectively), by which the PGH2 was sequestered (the PGH2 is reduced to mainly 12-hydroxy heptadecatrineoic acid (12-HHT) which is not detected by the subsequent PGE2 detection step). The resulting solution was then pH neutralized by addition of potassium phosphate buffer, prior to diluting an aliquot of the resulting solution in a weak potassium phosphate buffer (50 mM, pH 6.8) containing 0.2% BSA (w/v). [Adapted from Jacobsson et al., Proc. Natl. Acad. Sci. USA, 1999, vol. 96, pp. 7220-7225]The PGE2 formed was quantified by use of a commercial HTRF based kit (catalogue #62PG2PEC or #62P2APEC from Cisbio International). 100% activity was defined as the PGE2 production in positive controls subtracted by the PGE2 production in the negative controls. IC50 values were then determined using standard procedures.
The potency is expressed as IC50 and the value indicated is an average of at least n=2.

IC50 | Structure (SMILES)
130 nM | NS(=O)(=O)c1ccccc1NS(=O)(=O)CCc1ccc(-c2cc3ccccc3o2)cc1 [Example 1, 2-[2-(4-Benzofuran-2-ylphenyl)ethylsulfonylamino]benzenesulfonamide]
270 nM | NS(=O)(=O)c1ccccc1NS(=O)(=O)CCc1ccc(C2Cc3ccccc3O2)cc1 (centres unmarked) [Example 2, 2-[2-[4-(2,3-Dihydrobenzofuran-2-yl)phenyl]ethylsulfonylamino]benzenesulfonamide]
140 nM | NS(=O)(=O)c1ccccc1NS(=O)(=O)/C=C/c1ccc(-c2cc3ccccc3o2)cc1 [Example 3, 2-[[(E)-2-(4-Benzofuran-2-ylphenyl)ethenyl]sulfonylamino]benzenesulfonamide]
79 nM | NS(=O)(=O)c1cc(F)ccc1NS(=O)(=O)/C=C/c1ccc(-c2cc3ccccc3o2)cc1 [Example 4, 2-[[(E)-2-(4-Benzofuran-2-ylphenyl)ethenyl]sulfonylamino]-5-fluoro-benzenesulfonamide]
40 nM | NS(=O)(=O)c1ccc(F)cc1NS(=O)(=O)/C=C/c1ccc(-c2cc3ccccc3o2)cc1 [Example 5, 2-[[(E)-2-(4-Benzofuran-2-ylphenyl)ethenyl]sulfonylamino]-4-fluoro-benzenesulfonamide]
74 nM | NS(=O)(=O)c1c(F)cccc1NS(=O)(=O)/C=C/c1ccc(-c2cc3ccccc3o2)cc1 [Example 6, 2-[[(E)-2-(4-Benzofuran-2-ylphenyl)ethenyl]sulfonylamino]-6-fluoro-benzenesulfonamide]
280 nM | CC(Cc1ccc(Cl)cc1)S(=O)(=O)Nc1ccccc1S(N)(=O)=O (centres unmarked) [Example 7, 2-[1-(4-Chlorophenyl)propan-2-ylsulfonylamino]benzenesulfonamide]
2200 nM | CC(Cc1ccccc1)S(=O)(=O)Nc1ccccc1S(N)(=O)=O (centres unmarked) [Example 8, 2-(1-Phenylpropan-2-ylsulfonylamino)benzenesulfonamide]
610 nM | C/C(=C\c1ccc(Cl)cc1)S(=O)(=O)Nc1ccccc1S(N)(=O)=O [Example 9, 2-[[(E)-1-(4-Chlorophenyl)prop-1-en-2-yl]sulfonylamino]benzenesulfonamide]
450 nM | CC(Cc1ccc(Cl)cc1)S(=O)(=O)Nc1cc(F)ccc1S(N)(=O)=O (centres unmarked) [Example 10, 2-[1-(4-Chlorophenyl)propan-2-ylsulfonylamino]-4-fluoro-benzenesulfonamide]
590 nM | C/C(=C\c1ccc(Cl)cc1)S(=O)(=O)Nc1cc(F)ccc1S(N)(=O)=O [Example 11, 2-[[(E)-1-(4-chlorophenyl)prop-1-en-2-yl]sulfonylamino]-4-fluoro-benzenesulfonamide]
1000 nM | C/C(=C\c1ccc(Cl)cc1)S(=O)(=O)Nc1ccc(F)cc1S(N)(=O)=O [Example 12, 2-[[(E)-1-(4-Chlorophenyl)prop-1-en-2-yl]sulfonylamino]-5-fluoro-benzenesulfonamide]
520 nM | C/C(=C\c1ccc(Cl)cc1)S(=O)(=O)Nc1cccc(F)c1S(N)(=O)=O [Example 13, 2-[[(E)-1-(4-Chlorophenyl)prop-1-en-2-yl]sulfonylamino]-6-fluoro-benzenesulfonamide]
3100 nM | C/C(=C\c1ccc(Cl)cc1)S(=O)(=O)Nc1c(F)cccc1S(N)(=O)=O [Example 14, 2-[[(E)-1-(4-Chlorophenyl)prop-1-en-2-yl]sulfonylamino]-3-fluoro-benzenesulfonamide]
7600 nM | C/C(=C\c1ccc(Cl)cc1)S(=O)(=O)Nc1ccc(C)cc1S(N)(=O)=O [Example 15, 2-[[(E)-1-(4-Chlorophenyl)prop-1-en-2-yl]sulfonylamino]-5-methyl-benzenesulfonamide]
190 nM | NS(=O)(=O)c1ccccc1NS(=O)(=O)CCc1ccc(-c2ccco2)cc1 [Example 16, 2-[2-[4-(2-Furyl)phenyl]ethylsulfonylamino]benzenesulfonamide]
5300 nM | NS(=O)(=O)c1ccccc1NS(=O)(=O)CCc1ccc(C2CCCO2)cc1 (centres unmarked) [Example 17, 2-[2-[4-(Oxolan-2-yl)phenyl]ethylsulfonylamino]benzenesulfonamide]
